# pIC50: −log10 of the molar value. Read-outs that look alike come from different tables or passages of the source.
# How the values were obtained:
# [1] = tested on: HIV-1 Ba-L isolate; format: cell-based; conditions: read-out: IC50 (50% inhibition of virus replication)
# [2] = tested on: HIV-1 NL4-3 isolate; format: cell-based; conditions: read-out: IC50 (50% inhibition of virus replication)
# [3] = tested on: HIV-1; format: cell-based
# [4] = tested on: Zaire Ebola GFP virus; format: cell-based
# [5] = tested on: Zaire Ebola GFP virus; format: cell-based; remark: listed apart in the source
# [6] = tested on: Ebola virus; parameters: species or system mice; conditions: mouse, in vivo, ip, 8 mg/kg
# [7] = tested on: PBMCs
# [8] = tested on: Zaire Ebola GFP virus; conditions: read-out: IC50 for the fit
# [9] = tested on: A549 cells
# [10] = tested on: HepG2 cells
# [11] = tested on: 293T cells
# [12] = tested on: VeroE6 cells
# [13] = tested on: A549 cells; remark: listed apart in the source
# [14] = mouse, in vivo
# [15] = tested on: Sindbis virus; conditions: cited from earlier work
compound,measurement,setting,value
"N.N.N.N.N.N.[Cl-].[Cl-].[Cl-].[Co+3] [Cohex, Hexaamminecobalt(III) chloride]",pIC50,[1],4.47
same,pIC50,[2],4.54
same,pIC50,[3],4.51
same,suppression of viral expression (GFP),[4],~100%
same,suppression of viral expression (GFP),[5],~100%
same,survival versus PBS treatment,[6],improved survival rates
same,CC50,[7],833 µM
same,concentrations at which cytotoxicity was observed,[7],above 100 μM
same,pIC50,[8],3.42
same,concentration until which no toxic effect appears,[9],about 0.1 mM
same,concentration until which no toxic effect appears,[10],about 0.1 mM
same,viability (leveling off),[11],70-80%
same,viability (leveling off),[12],70-80%
same,dead cells by PI staining,[13],almost no change
same,tolerability,[14],no adverse reactions reported
same,cell viability and viral expression,[15],effective in significantly enhancing cell viability and in depressing viral expression

# From patent US20110027388A1 (priority 2009, published 2011)
